Read-outs that look alike come from different tables or passages of the source.

The target in assay [1] is T1, sucrase (carbohydrase derived from rabbit small intestine mucous membrane) (Oryctolagus cuniculus, UniProt P07768).
T1 construct: suspended again in a 10 mM potassium phosphate buffer (pH: 7.0), thereby obtaining a crude enzyme suspension; from tissue; host or cells: rabbit small intestine (title: mucous membrane), homogenate, 60,000×g precipitate
Description: Action to inhibit the hydrolytic activity of homogenate prepared from rabbit small intestine mucous membrane: sucrase inhibition. It is filed as biochemical. As to conditions: for inhibition at 2000 µg/mL / inhibition at 500 µg/mL / inhibition at 1000 µg/mL / inhibition at 4000 µg/mL: 0.25 h. As for the experimental part: (§1) (Action to inhibit the hydrolytic activity of homogenate prepared from rabbit small intestine mucous membrane to carbohydrate)
(§2) A native kind of white rabbits (weight: 3.0-3.5 kg) were sacrificed by exsanguination to take out their small intestines.
(§3) After freezing and thawing the small intestines thus taken out, they were homogenized in a 5 mM EDTA buffer (pH: 7.0) and subjected to centrifugation for 60 minutes at 60,000×g. Precipitate thus formed was collected and suspended again in a 10 mM potassium phosphate buffer (pH: 7.0), thereby obtaining a crude enzyme suspension.
(§4) Sucrose (20 mM) and maltose (20 mM) were used as substrates.
(§5) Each reaction mixture was formulated so as to contain 350 microliters of a 100 mM maleate buffer (pH: 6.8), 100 microliters of a substrate solution, 50 microliters of the crude enzyme suspension and 50 microliters of a test solution. Substances to be tested were separately dissolved in a maleate buffer (pH: 6.8) before use.
(§6) Respective reactions were conducted for 15 minutes at 37° C.

Assay [2] relates to maltase (carbohydrase derived from rabbit small intestine mucous membrane). The assay can be described thus: Action to inhibit the hydrolytic activity of homogenate prepared from rabbit small intestine mucous membrane: maltase inhibition. It is filed as biochemical. As to conditions: for Maltase inhibition rate: substrate maltose 20 mM, pH 6.8, 37° C., 15 minutes. The protocol: as §1, §2, §3, §4, §5, §6

Setting [3] is: 200 mg/dl, substrate sucrose 20 mM, pH 6.8, 37° C., 15 minutes, read-out: Sucrase inhibition rate.
The mark [4] stands for this setting: pH 6.8, read-out: Sucrase inhibition rate.

T1 sequence (P07768 1008-1827 limits assumed): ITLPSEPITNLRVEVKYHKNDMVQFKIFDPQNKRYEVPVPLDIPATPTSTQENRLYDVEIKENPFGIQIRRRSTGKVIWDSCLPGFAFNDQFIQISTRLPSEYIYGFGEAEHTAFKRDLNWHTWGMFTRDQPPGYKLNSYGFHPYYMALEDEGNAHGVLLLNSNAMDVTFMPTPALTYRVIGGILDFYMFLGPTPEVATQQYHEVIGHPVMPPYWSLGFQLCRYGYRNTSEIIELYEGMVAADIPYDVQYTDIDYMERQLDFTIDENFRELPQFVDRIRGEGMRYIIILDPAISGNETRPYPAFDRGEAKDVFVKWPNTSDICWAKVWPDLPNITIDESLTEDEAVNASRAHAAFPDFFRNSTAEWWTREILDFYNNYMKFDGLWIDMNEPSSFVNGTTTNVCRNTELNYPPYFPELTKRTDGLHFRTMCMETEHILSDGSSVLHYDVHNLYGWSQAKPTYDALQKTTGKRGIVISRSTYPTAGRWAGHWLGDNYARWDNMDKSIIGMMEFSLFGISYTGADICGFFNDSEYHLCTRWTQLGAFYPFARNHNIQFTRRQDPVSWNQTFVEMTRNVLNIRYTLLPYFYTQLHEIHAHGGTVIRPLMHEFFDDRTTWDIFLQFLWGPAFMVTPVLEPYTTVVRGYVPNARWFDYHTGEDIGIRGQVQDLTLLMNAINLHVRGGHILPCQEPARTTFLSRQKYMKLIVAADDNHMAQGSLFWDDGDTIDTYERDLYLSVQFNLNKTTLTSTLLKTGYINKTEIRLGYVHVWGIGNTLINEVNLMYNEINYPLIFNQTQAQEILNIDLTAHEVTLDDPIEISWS
T1 sequence (P07768 2-1007 partner limits assumed): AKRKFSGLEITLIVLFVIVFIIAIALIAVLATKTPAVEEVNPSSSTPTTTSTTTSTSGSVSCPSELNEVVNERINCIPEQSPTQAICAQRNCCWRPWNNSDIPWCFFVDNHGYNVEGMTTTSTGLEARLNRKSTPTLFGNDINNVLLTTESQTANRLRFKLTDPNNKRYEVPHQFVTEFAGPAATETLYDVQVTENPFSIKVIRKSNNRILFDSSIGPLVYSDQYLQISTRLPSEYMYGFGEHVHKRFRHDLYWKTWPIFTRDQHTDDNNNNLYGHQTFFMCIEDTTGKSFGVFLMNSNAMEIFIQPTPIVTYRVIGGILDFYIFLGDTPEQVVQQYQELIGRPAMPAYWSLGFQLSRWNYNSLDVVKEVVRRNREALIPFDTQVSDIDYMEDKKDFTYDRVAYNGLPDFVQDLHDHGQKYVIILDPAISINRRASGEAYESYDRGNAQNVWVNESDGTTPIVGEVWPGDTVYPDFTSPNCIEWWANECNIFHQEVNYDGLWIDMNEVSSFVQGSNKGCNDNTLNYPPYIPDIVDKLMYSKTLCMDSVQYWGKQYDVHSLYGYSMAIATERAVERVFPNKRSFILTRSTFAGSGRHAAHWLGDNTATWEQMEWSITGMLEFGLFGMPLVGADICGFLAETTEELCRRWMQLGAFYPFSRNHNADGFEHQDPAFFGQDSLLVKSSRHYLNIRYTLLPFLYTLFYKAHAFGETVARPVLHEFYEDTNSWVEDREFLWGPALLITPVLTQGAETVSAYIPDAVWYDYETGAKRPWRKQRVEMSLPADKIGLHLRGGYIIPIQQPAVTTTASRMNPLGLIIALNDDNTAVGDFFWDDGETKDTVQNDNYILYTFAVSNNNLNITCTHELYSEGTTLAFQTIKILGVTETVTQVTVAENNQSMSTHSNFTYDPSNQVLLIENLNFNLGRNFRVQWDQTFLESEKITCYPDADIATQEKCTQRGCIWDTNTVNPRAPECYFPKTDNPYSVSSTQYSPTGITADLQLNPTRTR

One may read the inhibition as the relative decrease from the control value, in per cent. In the case of `OC[C@H]1O[C@@H](O[C@H]2[C@H](O)[C@@H](O)C(O)O[C@@H]2CO)[C@H](O)[C@@H](O)[C@@H]1O` (stereo partly shown) [Cellobiose, reference compound], in assay [1] (setting [3]), the inhibition at 2000 µg/mL is -0.4%. For the same compound, in assay [2] (200 mg/dl), the Maltase inhibition rate stood at 2.8%.
Turning to `O=C[C@@H](O)[C@H](O)[C@H](O)CO` [D-Arabinose, D-arabinose, reference compound], in assay [1], the “sucrase-inhibiting action (in words)” value is given as “no or little inhibiting action”. The inhibition at 500 µg/mL in assay [1] (50 mg/dl, substrate sucrose 20 mM, pH 6.8, 37° C., 15 minutes, read-out: Sucrase inhibition rate) amounted to 4%. Besides, the inhibition at 1000 µg/mL in assay [1] (100 mg/dl, substrate sucrose 20 mM, pH 6.8, 37° C., 15 minutes, read-out: Sucrase inhibition rate) is 6.8%. The inhibition at 2000 µg/mL in assay [1] (setting [3]) is 11.7%. In addition, the “maltase-inhibiting action (in words)” value in assay [2] is on record as “no or little inhibiting action”. For the same compound, in assay [2] (200 mg/dl), the Maltase inhibition rate was 7.8%.
On to `C[C@@H](O)[C@H](O)[C@H](O)[C@@H](O)C=O` [D-Fucose, D-fucose, reference compound], for which the “sucrase-inhibiting action (in words)” value in assay [1] was “no or little inhibiting action”. In addition, the inhibition at 2000 µg/mL in assay [1] (setting [3]) stood at 8.7%. Also, in assay [2], the “maltase-inhibiting action (in words)” value is on record as “no or little inhibiting action”. The Maltase inhibition rate in assay [2] (200 mg/dl) is on record as 4.1%.
Regarding `N[C@H]1C(O)O[C@H](CO)[C@H](O)[C@@H]1O` (stereo partly drawn) [D-Galactosamine, D-galactosamine, reference compound], the “sucrase-inhibiting action (in words)” value in assay [1] is on record as “no or little inhibiting action”. Besides, the inhibition at 2000 µg/mL in assay [1] (setting [3]) was -6.5%. The “maltase-inhibiting action (in words)” value in assay [2] is given as “no or little inhibiting action”. For the same compound, the Maltase inhibition rate in assay [2] (200 mg/dl) is recorded as -4.5%.
As to `O=C[C@H](O)[C@@H](O)[C@@H](O)[C@H](O)CO` [D-Galactose, D-galactose, reference compound], in assay [1], the “sucrase-inhibiting action (in words)” value is “no or little inhibiting action”. In assay [1] (setting [4]), the inhibition at 500 µg/mL is -0.6%, the inhibition at 1000 µg/mL was -0.9%, the inhibition at 2000 µg/mL was 6.4% and the inhibition at 4000 µg/mL came to 20.2%. Besides, the “maltase-inhibiting action (in words)” value in assay [2] is “no or little inhibiting action”. The Maltase inhibition rate in assay [2] (50 mg/dl) is -0.8%. Besides, in assay [2] (100 mg/dl), the Maltase inhibition rate was 13.9%. Also, the Maltase inhibition rate in assay [2] (200 mg/dl) was found to be 15.3%. In assay [2] (400 mg/dl), the Maltase inhibition rate stood at 11.8%.
In the case of `O=C[C@@H](O)[C@@H](O)[C@H](O)[C@H](O)CO` [D-Mannose, D-mannose, reference compound], the “sucrase-inhibiting action (in words)” value in assay [1] is given as “no or little inhibiting action”. For the same compound, the inhibition at 500 µg/mL in assay [1] (setting [4]) is -0.7%. The inhibition at 1000 µg/mL in assay [1] (setting [4]) was found to be 12.9%. Also, the inhibition at 2000 µg/mL in assay [1] (setting [4]) was 19.3%. Besides, the inhibition at 4000 µg/mL in assay [1] (setting [4]) was 27.8%. Further, in assay [2], the “maltase-inhibiting action (in words)” value is recorded as “no or little inhibiting action”. Also, the Maltase inhibition rate in assay [2] (50 mg/dl) worked out at 3.2%; in assay [2] (100 mg/dl), 10.6%; in assay [2] (200 mg/dl), 25.1%; in assay [2] (400 mg/dl), 30.4%.
`O=C[C@@H](O)[C@@H](O)[C@@H](O)[C@H](O)CO` [D-Talose, D-talose, reference compound]: the “sucrase-inhibiting action (in words)” value in assay [1] is reported as “no or little inhibiting action”. Further, the inhibition at 2000 µg/mL in assay [1] (setting [4]) came to 5.4%. In assay [2], the “maltase-inhibiting action (in words)” value is “no or little inhibiting action”. In addition, in assay [2] (200 mg/dl), the Maltase inhibition rate worked out at 5.3%.
With `OC[C@H]1O[C@@H](OC[C@H]2OC(O)[C@H](O)[C@@H](O)[C@@H]2O)[C@H](O)[C@@H](O)[C@@H]1O` (stereo partly shown) [Gentiobiose, reference compound], in assay [1] (setting [3]), the inhibition at 2000 µg/mL is -2.4%. Further, the Maltase inhibition rate in assay [2] (200 mg/dl) is 1.9%.
Regarding `O=C[C@H](O)[C@H](O)[C@@H](O)CO` [L-Lyxose, L-lyxose, reference compound], the “sucrase-inhibiting action (in words)” value in assay [1] is on record as “no or little inhibiting action”. The inhibition at 2000 µg/mL in assay [1] (setting [3]) was -0.2%. For the same compound, in assay [2], the “maltase-inhibiting action (in words)” value is reported as “no or little inhibiting action”. The Maltase inhibition rate in assay [2] (200 mg/dl) is recorded as 10.0%.

The record behind these values is patent US5468734A, “Prophylactic and remedial preparation for diseases attendant on hyperglycemia, and wholesome food” (Godo Shusei Co., Ltd., priority 1992, dated 1995).
